# Measured values: patent US9562035B2, “Benzamide derivative useful as FASN inhibitors for the treatment of cancer” (Janssen Pharmaceutica NV, priority 2013, dated 2017)
# Key:
# [1] = molecular target: T1, FASN Keto-reductase Domain (Homo sapiens, UniProt P49327); test: Fatty Acid Synthase Keto-Reductase Domain (FASN KR) Inhibition; type: biochemical; conditions: mean where tested more than once; read-out: FASN K-R Domain pIC50 (converted)
# T1 construct: 10 μL hFASN enzyme (full length, 300 ng, purified in house) and 360 μM NADPH; made in house
# Procedure, shortened: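 Full-length human FASN (300 ng) in 100 mM KH2PO4 pH 7.5 with 360 μM NADPH and 180 mM ethyl acetoacetate (stock); A340 decrease read over 20 min at room temperature.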
# [2] = molecular target: T2, hFASN enzyme (full length) (Homo sapiens, UniProt P49327); test: Fatty Acid Synthase (FASN) Inhibition Scintillation Proximity Assay; type: biochemical; conditions: for IC50: mean where tested more than once, ~ = standard error of pIC50 larger than 0.5; for inhibition at 10 µM: read-out: FASN % Effect @1E−05M
# T2 construct: 10 μL hFASN enzyme (full length, 300 ng, purified in house); made in house
# Procedure, shortened: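 Purified full-length human FASN (300 ng) incubated 60 min at room temperature with NADPH, [3H]-acetyl-CoA and malonyl-CoA in 100 mM KH2PO4 pH 7.5, 1 mM DTT; compound at 30 μM to 0.01 μM. [3H]-palmitate captured by SPA imaging beads; IC50 from 4-parameter fit, reported as pIC50.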
# A2780 ovarian cells [3] = test: A2780 Ovarian Cell Proliferation Assay in Lipid Reduced Medium, without Palmitate; type: cell-based; conditions: Homo sapiens, A2780; lipid reduced medium, without palmitate, 96 h, MTT; read-out: Proliferation A2780 w/o Palmitate pIC50 (converted)
# Procedure, shortened: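 A2780 cells were seeded in 10% FCS medium and switched next day to 10% lipid-reduced serum without palmitate. Compounds at 0.01–30 μM were added with 0.2% DMSO, 0.2% fatty-acid-free BSA and 0.25% ethanol final. After 96 h, MTT absorbance at 544 nm was normalized to plate controls, and IC50/pIC50 came from a 4-parameter logistic fit.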
# A2780 ovarian cells [4] = test: A2780 Ovarian Cell Proliferation Assay in Lipid Reduced Medium, with Palmitate (control); type: cell-based; conditions: Homo sapiens, A2780; lipid reduced medium, 25 μM palmitate, 96 h, MTT; read-out: Proliferation A2780 with Palmitate pIC50 (converted)
# Procedure, shortened: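 A2780 cells were seeded in RPMI1640 with 10% FCS, then switched next day to medium with 10% lipid-reduced serum. Compound was added with final 25 μM palmitate, 0.2% fatty-acid-free BSA and 0.2% DMSO, and incubated 96 h at 37 °C. Read-out was MTT absorbance at 544 nm; pIC50 = −log(IC50) from curve fit.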
# T2 sequence (P49327 whole entry): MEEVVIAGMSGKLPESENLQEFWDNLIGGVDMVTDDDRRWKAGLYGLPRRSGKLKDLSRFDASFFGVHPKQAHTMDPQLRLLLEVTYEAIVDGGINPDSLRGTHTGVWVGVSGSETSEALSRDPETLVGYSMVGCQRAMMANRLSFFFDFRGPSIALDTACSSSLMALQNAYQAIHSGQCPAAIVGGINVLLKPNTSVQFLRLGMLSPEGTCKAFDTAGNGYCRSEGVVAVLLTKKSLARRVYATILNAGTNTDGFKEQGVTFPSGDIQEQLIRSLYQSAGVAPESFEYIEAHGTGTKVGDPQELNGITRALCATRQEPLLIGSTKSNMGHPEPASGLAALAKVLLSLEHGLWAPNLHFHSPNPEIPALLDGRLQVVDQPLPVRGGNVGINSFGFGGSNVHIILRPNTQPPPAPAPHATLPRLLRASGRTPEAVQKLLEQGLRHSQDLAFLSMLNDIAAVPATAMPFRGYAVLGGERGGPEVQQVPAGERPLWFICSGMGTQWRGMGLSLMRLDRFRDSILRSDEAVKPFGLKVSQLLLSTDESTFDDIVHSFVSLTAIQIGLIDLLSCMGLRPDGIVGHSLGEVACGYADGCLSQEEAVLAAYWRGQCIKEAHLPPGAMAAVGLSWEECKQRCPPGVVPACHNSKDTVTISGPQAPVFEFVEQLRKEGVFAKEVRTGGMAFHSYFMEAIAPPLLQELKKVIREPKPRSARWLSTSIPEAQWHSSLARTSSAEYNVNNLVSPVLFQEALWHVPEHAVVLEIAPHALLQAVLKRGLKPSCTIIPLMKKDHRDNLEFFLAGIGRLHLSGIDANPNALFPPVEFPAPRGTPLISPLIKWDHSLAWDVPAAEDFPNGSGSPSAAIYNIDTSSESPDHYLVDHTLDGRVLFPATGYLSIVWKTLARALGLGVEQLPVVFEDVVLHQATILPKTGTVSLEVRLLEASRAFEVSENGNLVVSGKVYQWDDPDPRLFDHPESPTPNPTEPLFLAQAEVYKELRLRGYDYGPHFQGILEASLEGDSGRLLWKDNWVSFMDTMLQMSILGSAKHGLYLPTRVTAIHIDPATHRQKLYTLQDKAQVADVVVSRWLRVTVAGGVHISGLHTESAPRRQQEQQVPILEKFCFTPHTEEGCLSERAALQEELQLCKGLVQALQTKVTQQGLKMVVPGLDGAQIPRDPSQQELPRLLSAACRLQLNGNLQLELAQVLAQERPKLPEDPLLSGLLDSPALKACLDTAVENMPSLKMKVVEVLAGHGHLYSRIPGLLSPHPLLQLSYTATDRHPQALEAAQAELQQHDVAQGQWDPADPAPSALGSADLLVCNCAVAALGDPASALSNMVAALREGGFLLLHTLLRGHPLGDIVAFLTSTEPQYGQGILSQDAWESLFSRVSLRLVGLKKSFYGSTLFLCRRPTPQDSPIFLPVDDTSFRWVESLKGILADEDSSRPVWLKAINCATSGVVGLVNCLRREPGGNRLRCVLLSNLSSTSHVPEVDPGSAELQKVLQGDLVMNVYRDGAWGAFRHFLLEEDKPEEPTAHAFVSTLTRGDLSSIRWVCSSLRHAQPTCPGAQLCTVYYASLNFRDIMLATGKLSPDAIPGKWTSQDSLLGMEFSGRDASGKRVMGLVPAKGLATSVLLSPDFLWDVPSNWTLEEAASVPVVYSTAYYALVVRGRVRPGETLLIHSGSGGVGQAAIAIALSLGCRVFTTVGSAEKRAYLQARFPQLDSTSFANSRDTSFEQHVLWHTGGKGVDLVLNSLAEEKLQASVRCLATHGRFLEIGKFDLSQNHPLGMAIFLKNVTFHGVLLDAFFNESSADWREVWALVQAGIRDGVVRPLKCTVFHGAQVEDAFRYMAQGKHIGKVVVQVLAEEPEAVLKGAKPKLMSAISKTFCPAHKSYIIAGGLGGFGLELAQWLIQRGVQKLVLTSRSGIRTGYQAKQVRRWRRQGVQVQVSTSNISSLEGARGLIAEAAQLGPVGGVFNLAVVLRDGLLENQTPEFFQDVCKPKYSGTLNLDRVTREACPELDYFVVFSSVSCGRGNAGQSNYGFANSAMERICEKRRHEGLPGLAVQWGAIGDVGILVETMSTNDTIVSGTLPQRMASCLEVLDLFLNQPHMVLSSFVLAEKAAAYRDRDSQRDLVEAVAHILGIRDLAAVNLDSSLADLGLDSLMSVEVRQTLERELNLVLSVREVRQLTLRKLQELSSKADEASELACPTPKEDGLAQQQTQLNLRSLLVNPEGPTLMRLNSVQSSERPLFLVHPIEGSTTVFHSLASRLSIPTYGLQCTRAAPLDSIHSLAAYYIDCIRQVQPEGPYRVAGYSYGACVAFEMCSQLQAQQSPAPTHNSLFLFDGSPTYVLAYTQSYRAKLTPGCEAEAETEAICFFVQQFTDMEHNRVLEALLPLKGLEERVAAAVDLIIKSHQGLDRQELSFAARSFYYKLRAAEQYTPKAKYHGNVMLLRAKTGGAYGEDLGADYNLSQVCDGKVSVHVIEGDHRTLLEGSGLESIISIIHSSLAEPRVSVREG
# T1 sequence (P49327 whole entry, the tested form may be a part): as the sequence (P49327 whole entry) above
SMILES,IC50 [1],IC50 [2],inhibition at 10 µM [2],IC50 (A2780 ovarian cells [3]),IC50 (A2780 ovarian cells [4])
"Cc1ccc(C(=O)N2CCC(c3ccc(-c4cnn(CCN(C)C)c4)cc3)CC2)cc1NC(=O)c1ccc(NC(C)C)nc1 [Compound 253, N-(5-(4-(4-(1-(2-(dimethylamino)ethyl)-1H-pyrazol-4-yl)phenyl)piperidine-1-carbonyl)-2-methylphenyl)-6-(isopropylamino)nicotinamide]",1230 nM,316 nM,104%,~257 nM,~1.86 µM
"Cc1ccc(C(=O)N2CCC(c3ncc(-c4cnn(C)c4)cn3)CC2)cc1NC(=O)c1ccc(Cl)nc1 [Compound 257, 6-chloro-N-(2-methyl-5-(4-(5-(1-methyl-1H-pyrazol-4-yl)pyrimidin-2-yl)piperidine-1-carbonyl)phenyl)nicotinamide]",2040 nM,617 nM,95%,891 nM,> 10 µM
"Cc1ccc(C(=O)N2CCC(c3ncc(-c4cnn(C)c4)cn3)CC2)cc1NC(=O)c1ccc(NC(C)C)nc1 [Compound 258, 6-(isopropylamino)-N-(2-methyl-5-(4-(5-(1-methyl-1H-pyrazol-4-yl)pyrimidin-2-yl)piperidine-1-carbonyl)phenyl)nicotinamide]",1230 nM,245 nM,99%,389 nM,> 10 µM
"Cn1cc(-c2ccc(C3CCN(C(=O)c4ccc(OCc5ccccc5)c(NC(=O)c5ccc(Cl)nc5)c4)CC3)cc2)cn1 [Compound 262, N-(2-(benzyloxy)-5-(4-(4-(1-methyl-1H-pyrazol-4-yl)phenyl)piperidine-1-carbonyl)phenyl)-6-chloronicotinamide]",1050 nM,263 nM,89%,617 nM,> 10 µM
"Cc1ccc(C(=O)N2CCC(c3ccc(-c4cnn(C)c4)cn3)CC2)cc1NC(=O)c1ccc(Cl)nc1 [Compound 263, 6-chloro-N-(2-methyl-5-(4-(5-(1-methyl-1H-pyrazol-4-yl)pyridin-2-yl)piperidine-1-carbonyl)phenyl)nicotinamide]",479 nM,91.2 nM,111%,170 nM,> 10 µM
"Cc1ccc(C(=O)N2CCC(c3ccc(-c4cnn(C)c4)nc3)CC2)cc1NC(=O)c1ccc(NC(C)C)nc1 [Compound 268, 6-(isopropylamino)-N-(2-methyl-5-(4-(6-(1-methyl-1H-pyrazol-4-yl)pyridin-3-yl)piperidine-1-carbonyl)phenyl)nicotinamide]",1350 nM,166 nM,104%,537 nM,> 10 µM
"Cc1ccc(C(=O)N2CCC(c3ccc(-c4cnn(C)c4)nc3)CC2)cc1NC(=O)c1ccc(Cl)nc1 [Compound 270, 6-chloro-N-(2-methyl-5-(4-(6-(1-methyl-1H-pyrazol-4-yl)pyridin-3-yl)piperidine-1-carbonyl)phenyl)nicotinamide]",2750 nM,589 nM,93%,1480 nM,> 10 µM
"CC(C)Nc1ccc(C(=O)Nc2cc(C(=O)N3CCC(c4ccc(-c5cnn(C)c5)cc4)CC3)ccc2OCc2ccccc2)cn1 [Compound 271, N-(2-(benzyloxy)-5-(4-(4-(1-methyl-1H-pyrazol-4-yl)phenyl)piperidine-1-carbonyl)phenyl)-6-(isopropylamino)nicotinamide]",537 nM,100 nM,101%,490 nM,> 10 µM

# Now those with a lower IC50 [2], led by results:
IC50 [1],IC50 [2],inhibition at 10 µM [2],IC50 (A2780 ovarian cells [3]),IC50 (A2780 ovarian cells [4]),SMILES
53.7 nM,42.7 nM,103%,18.2 nM,~10 µM,"Cc1ccc(C(=O)N2CCC(c3ccc(-c4cnn(C5CC5)c4)cc3)CC2)cc1NC(=O)c1ccc(NC(C)C)nc1 [Compound 254, N-(5-(4-(4-(1-cyclopropyl-1H-pyrazol-4-yl)phenyl)piperidine-1-carbonyl)-2-methylphenyl)-6-(isopropylamino)nicotinamide]"
355 nM,56.2 nM,103%,~85.1 nM,> 10 µM,"Cc1ccc(C(=O)N2CC(c3ccc(-c4cccnc4N)cc3)C2)cc1NC(=O)c1ccc(Cl)nc1 [Compound 259, N-(5-(3-(4-(2-aminopyridin-3-yl)phenyl)azetidine-1-carbonyl)-2-methylphenyl)-6-chloronicotinamide]"
102 nM,25.1 nM,112%,34.7 nM,> 10 µM,"Cc1ccc(C(=O)N2CC(c3ccc(-c4cccnc4N)cc3)C2)cc1NC(=O)c1ccc(N2CCOCC2)nc1 [Compound 260, N-(5-(3-(4-(2-aminopyridin-3-yl)phenyl)azetidine-1-carbonyl)-2-methylphenyl)-6-morpholinonicotinamide]"
126 nM,60.3 nM,107%,112 nM,3.31 µM,"Cc1ccc(C(=O)N2CCC(c3ccc(-c4cnn(-c5cccnc5)c4)cc3)CC2)cc1NC(=O)c1ccc(NC(C)C)nc1 [Compound 261, 6-(isopropylamino)-N-(2-methyl-5-(4-(4-(1-(pyridin-3-yl)-1H-pyrazol-4-yl)phenyl)piperidine-1-carbonyl)phenyl)nicotinamide]"
219 nM,58.9 nM,109%,87.1 nM,> 10 µM,"Cc1ccc(C(=O)N2CCC(c3ccc(-c4cnn(C)c4)cn3)CC2)cc1NC(=O)c1ccc(NC(C)C)nc1 [Compound 264, 6-(isopropylamino)-N-(2-methyl-5-(4-(5-(1-methyl-1H-pyrazol-4-yl)pyridin-2-yl)piperidine-1-carbonyl)phenyl)nicotinamide]"
60.3 nM,21.9 nM,110%,20.9 nM,> 10 µM,"Cc1ccc(C(=O)N2CC(c3ccc(-c4ccncc4N)cc3)C2)cc1NC(=O)c1ccc(N2CCOCC2)nc1 [Compound 265, N-(5-(3-(4-(3-aminopyridin-4-yl)phenyl)azetidine-1-carbonyl)-2-methylphenyl)-6-morpholinonicotinamide]"
107 nM,38 nM,112%,~41.7 nM,> 10 µM,"Cc1ccc(C(=O)N2CC(c3ccc(-c4ccncc4N)cc3)C2)cc1NC(=O)c1ccc(Cl)nc1 [Compound 266, N-(5-(3-(4-(3-aminopyridin-4-yl)phenyl)azetidine-1-carbonyl)-2-methylphenyl)-6-chloronicotinamide]"
58.9 nM,25.7 nM,112%,~22.4 nM,> 10 µM,"Cc1ccc(C(=O)N2CCC(c3ccc(-c4cnn(CCO)c4)cc3)CC2)cc1NC(=O)c1ccc(NC(C)C)nc1 [Compound 267, N-(5-(4-(4-(1-(2-hydroxyethyl)-1H-pyrazol-4-yl)phenyl)piperidine-1-carbonyl)-2-methylphenyl)-6-(isopropylamino)nicotinamide]"
257 nM,69.2 nM,107%,316 nM,7.24 µM,"CC(C)Nc1ccc(C(=O)Nc2cc(C(=O)N3CCC(c4ccc(-c5cnn(C)c5)cc4)CC3)ccc2O)cn1 [Compound 269, N-(2-hydroxy-5-(4-(4-(1-methyl-1H-pyrazol-4-yl)phenyl)piperidine-1-carbonyl)phenyl)-6-(isopropylamino)nicotinamide]"
